Laboratory results: patent US4735961A, “Oxazoles and thiazoles containing an aminohydroxypropoxyphenyl moiety” (Merck & Co., Inc., priority 1985, dated 1988)

These compounds were tested on β2 : β1 receptors (assay: cardioselectivity, β2:β1 ratio (pulmonary versus cardiac effect, guinea pig trachea versus atria)). Details: ratio of pulmonary (β2) to cardiac (β1) effect; over 1 = cardioselective.
Format: cell-based
From the text: Expressed in different terms, a smaller amount of a compound of the invention is required to block isoproterenol-induced elevation in heart rate than is required to block the isoproterenol-induced relaxation of the bronchi. This cardioselectivity factor can be expressed as the ratio of ED50 for pulmonary effect (β2):ED50 for cardiac effect (β1). Where the β2 :β1 ratio is over 1, then the compound would be considered to have cardioselective activity.

Row | SMILES | β2 :β1
1 | COc1ccc(CCNCC(O)COc2ccc(-c3ncco3)cc2)cc1OC (stereo not drawn) [Example 1, 2-p-[3-(3,4-Dimethoxyphenethylamino)-2-hydroxypropoxy]phenyl oxazole] | 19
2 | COc1ccc(CCNC[C@H](O)COc2ccc(-c3nccs3)cc2)cc1OC [Example 2, (S) 2-p-[3-(3,4-Dimethoxyphenylethyl)amino-2-hydroxypropoxy]phenyl thiazole] | 813
3 | OC(CNC1CC1)COc1ccc(-c2nccs2)cc1 (stereo not drawn) [Example 3, 2-[p-(3-Cyclopropylamino-2-hydroxypropoxy)phenyl]thiazole] | 85
